For eight compounds, IC50 results are on record in patent US20230143612A1 (Arbutus Biopharma Corporation, priority 2020, published 2023).

Chain of PD-L1 His protein / PD-1 Fc protein (Q9NZQ7 19-238 limits assumed): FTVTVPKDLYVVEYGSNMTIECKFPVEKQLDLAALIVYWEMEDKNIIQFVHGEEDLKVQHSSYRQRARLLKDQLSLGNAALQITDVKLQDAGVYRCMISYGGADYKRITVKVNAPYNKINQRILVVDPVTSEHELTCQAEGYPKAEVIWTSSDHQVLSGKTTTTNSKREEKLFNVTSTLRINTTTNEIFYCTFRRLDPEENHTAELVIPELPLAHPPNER

The test concerns the target PD-L1 His protein / PD-1 Fc protein (Homo sapiens, UniProt Q9NZQ7). Put plainly: HTRF Assay (PD-1/PD-L1 interaction). The following applies: PD-L1 His 6 nM, PD-1 Fc 6 nM. It counts as binding. The essentials: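 Compounds tested from 20 μM down to 0.001 μM (3-fold) against 6 nM PD-L1 His and 6 nM PD-1 Fc, 15 min room temperature incubation. Detection after 1 h at room temperature with Tb cryptate anti-6HIS and XL665 anti-human IgG reagents (mixture at 0.35 nM and 6.7 nM), HTRF signal.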
For orientation: IC50 means the concentration that inhibits the measured activity by half. On to `COc1nc(-c2cccc(-c3cccc(-c4ccc(CN5CCCC[C@H]5C(=O)O)c(OC)n4)c3Cl)c2Cl)ccc1CNC[C@@H]1CCC(=O)N1` [Example 494, (S)-1-((6-(2,2′-Dichloro-3′-(6-methoxy-5-(((((S)-5-oxopyrrolidin-2-yl)methyl)amino)-methyl)pyridin-2-yl)-[1,1′-biphenyl]-3-yl)-2-methoxypyridin-3-yl)methyl)piperidine-2-carboxylic acid], for which half-maximal inhibition (IC50) was put at 0.1 nM.

`COc1nc(-c2cccc(-c3cccc(-c4ccn5c(=O)c(CNCCO)cnc5c4)c3Cl)c2Cl)ccc1CNCCO` [Example 75, 8-(2,2′-Dichloro-3′-(5-(((2-hydroxyethyl)amino)methyl)-6-methoxypyridin-2-yl)-[1,1′-biphenyl]-3-yl)-3-(((2-hydroxyethyl)amino)methyl)-4H-pyrido[1,2-a]pyrimidin-4-one] returned an IC50 of 3.4 nM.

Turning to `COc1nc(-c2cccc(-c3cccc(-c4cc5c(=O)n(C)c(CNCC(C)(C)O)nn5c4)c3Cl)c2Cl)cc(Cl)c1CNC[C@@H]1CCC(=O)N1` [Example 478, (S)-6-(2,2′-Dichloro-3′-(4-chloro-6-methoxy-5-((((5-oxopyrrolidin-2-yl)methyl)amino)methyl)pyridin-2-yl)-[1,1′-biphenyl]-3-yl)-2-(((2-hydroxy-2-methylpropyl)amino)methyl)-3-methylpyrrolo[2,1-f][1,2,4]triazin-4(3H)-one], the midpoint of inhibition, the IC50, lay at 29 nM.

In turn, `COc1nc(-c2cccc(-c3cccc(-c4ccc5c(CNCCN6CCCC6=O)cn(C)c5n4)c3Cl)c2Cl)ccc1CNC[C@@H]1CCC(=O)N1` [Example 414, 1-[2-[[6-[2-Chloro-3-[2-chloro-3-[6-methoxy-5-[[[(2S)-5-oxopyrrolidin-2-yl]methylamino]methyl]-2-pyridyl]phenyl]phenyl]-1-methyl-pyrrolo[2,3-b]pyridin-3-yl]methylamino]ethyl]pyrrolidin-2-one] registered an IC50 of 170 nM.

For `Cc1c(COc2cc(OCc3cncc(C#N)c3)c(CNC[C@@H]3CCC(=O)N3)cc2Cl)cccc1-c1cccc(-c2ccc3c(c2)C(=O)N(C)CC(=O)N3CCNC[C@@H]2CCC(=O)N2)c1C` [Example 20, 5-((4-Chloro-5-((2,2′-dimethyl-3′-(4-methyl-2,5-dioxo-1-(2-((((S)-5-oxopyrrolidin-2-yl)methyl)amino)ethyl)-2,3,4,5-tetrahydro-1H-benzo[e][1,4]diazepin-7-yl)-[1,1′-biphenyl]-3-yl)methoxy)-2-(((((S)-5-oxopyrrolidin-2-yl)methyl)amino)methyl)phenoxy)methyl)nicotinonitrile], the concentration for half-maximal inhibition (IC50) came to 4.2 nM.

For `COc1nc(-c2cccc(-c3cccc(-c4ccn5c(=O)c(CNC6CCN(C(C)=O)CC6)cnc5c4)c3Cl)c2Cl)ccc1CNC[C@@H]1CCC(=O)N1` [Example 256, 3-[[(1-Acetyl-4-piperidyl)amino]methyl]-8-[2-chloro-3-[2-chloro-3-[6-methoxy-5-[[[(2S)-5-oxopyrrolidin-2-yl]methylamino]methyl]-2-pyridyl]phenyl]phenyl]pyrido[1,2-a]pyrimidin-4-one], half-maximal inhibition (IC50) was put at 0.1 nM.

Turning to `COc1nc(-c2cccc(-c3cccc(-c4ccc5c(OC)c(CNC[C@@H]6CCC(=O)N6)cc(Cl)c5n4)c3Cl)c2Cl)cc(F)c1CNC[C@@H]1CCC(=O)N1` [Example 398, (S)-5-((((8-Chloro-2-(2,2′-dichloro-3′-(4-fluoro-6-methoxy-5-(((((S)-5-oxopyrrolidin-2-yl)methyl)amino)methyl)pyridin-2-yl)-[1,1′-biphenyl]-3-yl)-5-methoxyquinolin-6-yl)methyl)amino)methyl)pyrrolidin-2-one], the IC50 was determined as 28 nM.

`COc1nc(-c2cccc(-c3cccc(-c4ccn5c(=O)c(CNCCO)cnc5c4)c3Cl)c2Cl)ccc1CNC[C@@H]1CCC(=O)N1` [Example 80, (S)-8-(2,2′-Dichloro-3′-(6-methoxy-5-((((5-oxopyrrolidin-2-yl)methyl)amino)methyl)pyridin-2-yl)-[1,1′-biphenyl]-3-yl)-3-(((2-hydroxyethyl)amino)methyl)-4H-pyrido[1,2-a]pyrimidin-4-one]: the half-maximal inhibitory concentration (IC50) turned out to be 4.2 nM.
